Assay results from patent US20260125334A1, “TREATMENT PROCESS FOR PFAS-CONTAINING COMPOUNDS” (priority 2023, published 2026).

Assays:
[1] = Effect of treatment rate on PFAS removal from synthetic AFFF wastewater, NMR (Example 4)
Method: Dimethyldimyristylammonium Bromide was tested in synthetic AFFF wastewater to determine if removal efficiency of the PFAS is affected by treatment rate. The treatment compound was added at 2%, 3%, and 4% w/w loading to AFFF wastewater. Solids were separated out via centrifugation and the solution was analyzed by NMR. […] FIG. 5 is the NMR spectra of each solution after treatment. […] As quat loading increased, the total area under the peaks was reduced. In the sample with 4% dimethyldioctadecylammonium bromide loading, total peak area was reduced by 90%.

[2] = Short chain PFAS standard treated with 2% quat: all PFAS (Example 5)
Method: A standard with approximately 1000 ppt each of PFOA, perfluoro-n-pentanoic acid (PFPeA), and perfluorobutane sulfonic acid (PFBS) was prepared via serial dilution and treated with 2% dimethyldioctadecylammonium bromide in technical triplicate. Samples were centrifuged and the liquid was filtered into a new centrifuge tube using a 0.45 micron syringe filter. Table 2 indicates the concentration of each PFAS after treatment.

[3] = PFAS removal kinetics in PFAS-contaminated field sample, LC-QTOF (Example 6); details: 0.01% treatment; aliquots at 0, 5, 10, 30, 90 minutes
Method: To determine PFAS removal kinetics, a PFAS-contaminated field sample was treated with dimethyldioctadecylammonium bromide. Aliquots were pulled at timed intervals and tested for remaining PFAS content. To a polypropylene bottle, 1000 mL of approximately 4 ppm PFAS-contaminated water was added to a 1 L HDPE bottle with a Teflon stir bar. The sample was stirred at 500 RPM for 10 minutes prior to the start of the experiment. To a 50 mL centrifuge tube, 20 mL aliquots were collected at 0, 5, 10, 30, and 90 minutes following treatment with 0.01%. Each sample was centrifuged to remove any remaining solids and passed through 0.45 micron filter prior to analysis by LC-QTOF. […] Subsequent PFAS removal was noted but minimal.

Structure (SMILES)	Concentration of remaining PFAS as concentration of quaternary ammonium compound increased ([1]; 2%, 3%, and 4% w/w loading)	Solubility in water (Solubility in water)	Reduction in all PFAS concentrations [2]	Reduction of total NMR peak area ([1]; 4% w/w loading)	Remaining PFAS content between the T=0 and T=5 sample [3]
CCCCCCCCCCCCCC[N+](C)(C)CCCCCCCCCCCCCC.[Br-] [Dimethyldimyristylammonium bromide, dimethyldimyristylammonium bromide]	decreased	–	–	–	–
CCCCCCCCCCCCCCCCCC[N+](C)(C)CCCCCCCCCCCCCCCCCC.[Br-] [Dimethyldioctadecylammonium bromide, dimethyldioctadecylammonium bromide]	–	nearly insoluble in water	> 99.87%	90%	rapid decrease
